The numbers were not newly measured in patent US7833986B2, “Anti-inflammatory peptides” (Salpep Biotechnology Inc., priority 2002, dated 2010), which cites them from elsewhere.

For the data set, the system named is lipopolysaccharide-induced hypotension. The following applies: Mathison et al. (1997).

submandibular gland peptide-T [SGP-T]: the “doses that inhibit lipopolysaccharide-induced hypotension” value is no less than 1 µg/kg.
